According to US4064132A, “Aroyl-substituted phenylacetamide derivatives” (Janssen Pharmaceutica N.V., priority 1976, dated 1977):
Where two headings read alike, the source gives them in different places.

Legend:
[1] = tested on: acetic acid induced writhing; experiment: HOAc (acetic acid) induced writhing test in rats; format: in vivo, female Wistar rats; settings: for ED50: Rattus norvegicus, po; for Potency Ratio: writhing test, compound A vs compound B
Method: According to the acetic acid induced writhing test, female Wistar rats (body weight 100±5g) are fasted overnight and injected intraperitoneally with 0.5 ml of a 1% acetic acid solution. Rats with at least 10 writhes within the first 10 minutes following the acetic acid injection are selected and treated five minutes later with an oral dose of the compound under investigation or with the vehicle (control). The number of writhes, i.e. the backward extension of the hind limbs, are counted during a 15 minute experimental session 45 to 60 minutes after the oral treatment. A minimum of three rats are used for each dose level tested.

[2] = tested on: mycobacterium butyricum induced arthritis; experiment: mycobacterium butyricum induced arthritis test in rats; format: in vivo, male Wistar rats; settings: for minimal effective dose: Rattus norvegicus, po, 336 h, 14 consecutive days; for Potency Ratio: arthritis test, compound A vs compound B
Method: According to the mycobacterium butyricum induced arthritis test, male Wistar rats (body weight 235±15g) are injected intradermally in the tail base with 0.05 ml of an oily suspension of mycobacterium butyricum. The paws and the joint diameters of the hind limbs are measured the day of the injection and a fortnight later. Rats with established arthritis, i.e., significant increase in paw and joint diameters are used for drug testing. Groups of three individually caged animals receive the drug under investigation mixed with the powdered food at different concentrations during 14 consecutive days. After this treatment period, the diameters of the hind limbs are measured again and the effect of drug treatment is evaluated by comparing the final swelling degrees of treated animals with that occurring in untreated controls. The lowest effective dose is that dose whereby a significant decrease of the swelling is observed as compared to untreated control animals.

[3] = drug in food, table 3, read-out: Mycobacterium butyricum test effective dose
[4] = all-or-none basis of less than 15 writhes per animal per session, table 1, read-out: Oral ED50 (lowest effective oral dose expressed as ED50)
[5] = mixed with the powdered food, significant decrease of swelling vs untreated controls, table 2, read-out: Lowest Effective Dose
[6] = table 3, read-out: Writhing test in rats, ED50

Row | Compound | minimal effective dose [2, 3] [mg/kg] | ED50 [1, 6] [mg/kg] | further results
1 | CC(C(=O)O)c1ccc(C(=O)c2cccs2)cc1 (single isomer, unassigned; (+)) [p-(2-thenoyl) (+) H H Me H OH, (+)-p-(2-thenoyl)hydratropic acid] | ≤ 2.5 | – | Writhing test in rats; ED50 ([1]; oral, table 3): 0.31 mg/kg
2 | CC(C(=O)O)c1ccc(C(=O)c2cccs2)cc1 (single isomer, unassigned; (-)) [p-(2-thenoyl) (-) H H Me H OH, (-)-p-(2-thenoyl)hydratropic acid] | – | – | Writhing test in rats; ED50 ([1]; oral, table 3): 5.0 mg/kg
3 | CC(C(=O)O)c1ccc(C(=O)c2cccs2)cc1 (stereo not drawn) [A, p-(2-thenoyl)-α-methyl-phenylacetic acid] | – | – | ED50 [1, 4]: 0.08 mg/kg; times more active than compound B (writhing) ([1]; oral): 16 times; Potency Ratio ([1]; table 1): 1; antagonism of mycobacterium butyricum induced arthritis in rats (in words) [2]: powerful antagonist of mycobacterium butyricum induced arthritis in rats; minimal effective dose [2, 5]: 0.63 mg/kg; Potency Ratio ([2]; table 2): 1; times more active than compound B (arthritis) ([2]; drug in food, 14 days): at least 16 times
4 | CC(C(=O)O)c1ccc(C(=O)c2ccccc2)cc1 (stereo not drawn) [B, p-benzoyl-α-methylphenylacetic acid, reference compound] | – | – | ED50 [1, 4]: 1.25 mg/kg; Potency Ratio ([1]; table 1): 1/16; minimal effective dose [2, 5]: 10 mg/kg; Potency Ratio ([2]; table 2): 1/16
5 | CC(C(=O)O)c1cccc(C(=O)c2cccs2)c1 (centres unmarked) [m-(2-thenoyl) H H Me H OH, m-(2-thenoyl)hydratropic acid] | – | 1.25 | –
6 | Cc1c(CC(=O)O)cccc1C(=O)c1cccs1 [m-(2-thenoyl) H Me H H OH, 2-[3-(2-thenoyl)-o-tolyl]acetic acid] | 1.25 | 10 | –
7 | CC(C(=O)O)c1ccc(C(=O)c2ccc3ccccc3c2)cc1 (centres unmarked) [p-(2-naphtoyl) H H Me H OH, p-(2-naphthoyl)hydratropic acid] | 10 | 1.25 | –
8 | CC(C(=O)O)c1ccc(C(=O)c2cccs2)c(Cl)c1 (centres unmarked) [p-(2-thenoyl) Cl H Me H OH, 3-chloro-4-(2-thenoyl)hydratropic acid] | 1.25 | 1.25 | –
9 | CCC(C(=O)O)c1ccc(C(=O)c2cccs2)cc1 (centres unmarked) [p-(2-thenoyl) H H Et H OH, 2-[p-(2-thenoyl)phenyl]butyric acid] | – | 0.63 | –
10 | CC(C(=O)NO)c1ccc(C(=O)c2cccs2)cc1 (centres unmarked) [p-(2-thenoyl) H H Me H NHOH, p-(2-thenoyl)hydratropohydroxamic acid] | – | 1.25 | –
11 | CCN(CC)CCOC(=O)C(C)c1ccc(C(=O)c2cccs2)cc1.Cl (centres unmarked) [p-(2-thenoyl) H H Me H O(CH2)2N(Et)2, 2-(diethylamino)ethyl p-(2-thenoyl)hydratropate hydrochloride] | 2.5 | 0.04 | –
12 | CC(C(=O)OCCN(C)C)c1ccc(C(=O)c2cccs2)cc1.O=C(O)C(=O)O (centres unmarked) [p-(2-thenoyl) H H Me H O(CH2)2N(Me)2, 2-(dimethylamino)ethyl p-(2-thenoyl)hydratropate oxalate] | 2.5 | 0.08 | –
13 | CC(C(=O)OCCCN(C)C)c1ccc(C(=O)c2cccs2)cc1.O=C(O)C(=O)O (centres unmarked) [p-(2-thenoyl) H H Me H O(CH2)3N(Me)2, 3-(dimethylamino)propylp-(2-thenoyl)hydratropate oxalate] | 2.5 | 0.16 | –
14 | CCOC(=O)C(C)c1ccc(C(=O)c2cccs2)cc1 (centres unmarked) [p-(2-thenoyl) H H Me H OEt, ethyl p-(2-thenoyl)hydratropate] | – | 0.31 | –
15 | CCCCCCCCOC(=O)C(C)c1ccc(C(=O)c2cccs2)cc1 (centres unmarked) [p-(2-thenoyl) H H Me H OOct, octyl p-(2-thenoyl)hydratropate] | – | 0.63 | –
16 | COc1ccc(NC(=O)C(C)c2ccc(C(=O)c3cccs3)cc2)cc1 (centres unmarked) [p-(2-thenoyl) H H Me H drawing 30] | < 10 | 10 | –
17 | CC(C(=O)NC1=NCCS1)c1ccc(C(=O)c2cccs2)cc1 (centres unmarked) [p-(2-thenoyl) H H Me H drawing 31] | 10 | 2.5 | –
18 | CC(C)(C(=O)O)c1ccc(C(=O)c2cccs2)cc1 [p-(2-thenoyl) H H Me Me OH, α-methyl-p-(2-thenoyl)hydratropic acid] | < 10 | 0.31 | –
19 | C=CCC(C(=O)O)c1ccc(C(=O)c2cccs2)cc1 (centres unmarked) [p-(2-thenoyl) H H allyl H OH, 2-[p-(2-thenoyl)phenyl]-4-pentenoic acid] | 10 | 1.25 | –
20 | Cc1cc(C(C)C(=O)O)ccc1C(=O)c1cccs1 (centres unmarked) [p-(2-thenoyl) Me H Me H OH, 3-methyl-4-(2-thenoyl)hydratropic acid] | 10 | 5 | –
21 | CC(C(=O)O)c1ccc(C(=O)c2cccnc2)cc1.Cl (centres unmarked) [p-(3-pyridylcarbonyl) H H Me H OH, p-(3-pyridylcarbonyl)hydratropic acid hydrochloride] | 2.5 | 2.5 | –
22 | Cc1ccc(C(=O)c2ccc(C(C)C(=O)O)cc2)s1 (centres unmarked) [p-(5-Me-2-thenoyl) H H Me H OH, p-(5-methyl-2-thenoyl)hydratropic acid] | 5 | 1.25 | –
23 | CC(C(=O)O)c1ccc(C(=O)c2ccc(Cl)s2)cc1 (centres unmarked) [p-(5-chloro-2-thenoyl) H H Me H OH, p-(5-chloro-2-thenoyl)hydratropic acid] | 5 | 0.63 | –
